# What was measured:
# [1] = stability of the crystalline form (statement only, no method described); format: physicochemical
# [2] = hygroscopicity of the crystalline form (statement only, no method described); format: physicochemical; settings: solid form
compound,measurement,setting,value
"Cc1cc(F)ccc1[C@H]1C[C@@H](N2CCN3C(=O)CC[C@H]3C2)CCN1C(=O)N(C)[C@H](C)c1cc(C(F)(F)F)cc(C(F)(F)F)c1.O=C(O)/C=C\C(=O)O [Form 1, (2R,4S)—N-{(1R)-1-[3,5-bis(trifluoromethyl)phenyl]ethyl}-2-(4-fluoro-2-methylphenyl)-N-methyl-4-[(8aS)-6-oxohexahydropyrrolo[1,2-a]pyrazin-2(1H)-yl]-1-piperidinecarboxamide maleate]",thermodynamic stability relative to Form 2,[1]; compared with Form 2 orvepitant maleate,thermodynamically more stable
same,stability of the crystalline form,[1]; solid form,particularly stable
same,hygroscopicity,[2],essentially non hygroscopic
